Values after ≈ are worked out from the molar mass of the structure shown.
Tests used:
Type in all cases: cell-based
[1] = tested on: ATCC19606 strain (Acinetobacter baumannii); assay: Broth microdilution, antibacterial activity of the compound used alone
Source text: (§1) The broth microdilution method was used to test the antibacterial effects of the compounds of the present invention against various Gram-negative bacterial strains when used alone.

[2] = tested on: ATCC25922 strain (Escherichia coli); assay: as above
Source text: as §1

[3] = tested on: ATCC13883 strain (Klebsiella pneumoniae); assay: as above
Source text: as §1

[4] = tested on: ATCC9027 strain (Pseudomonas aeruginosa); assay: as above
Source text: as §1

[5] = tested on: ATCC19606 strain (Acinetobacter baumannii); assay: Checkerboard antibacterial synergistic activity test with polymyxin E (FIC); design: key: FIC≤0.5 synergy; 0.5–1 additive; 1–2 indifferent; ≥2 antagonism; conditions: combined with polymyxin E
Procedure: (§2) Polymyxin E was diluted in sterile MH broth medium to concentrations of 16, 8, 4, 2, 1, 0.5, 0.25, 0.125, 0.0625, 0.031, and 0.015 μg/ml, and the drug to be tested was diluted to concentrations of 256, 128, 64, 32, 16, 8, and 4 μg/ml. According to the checkerboard method, combinations of the drug to be tested and polymyxin at different concentrations in ascending order were placed into a 96-well plate, and corresponding blank control groups were set up. 50 μl of the drug solution was added to each well, then 100 μl of bacterial liquid was added, and incubated in a 37° C. incubator for 16 hours. […] Calculation and judgment criteria:
(§3) Fractional Inhibitory Concentration (FIC) is calculated as follows: […]
(§4) Judgment criteria: FIC≤0.5: synergistic effect; 0.5<FIC<1: additive effect; 1<FIC<2: indifferent effect; FIC≥2: antagonistic effect.
(§5) In the table: ATCC19606 strain is Acinetobacter baumannii, ATCC25922 strain is Escherichia coli, ATCC13883 strain is Klebsiella pneumoniae, ATCC9027 strain is Pseudomonas aeruginosa. All four strains were purchased from ATCC.

[6] = tested on: ATCC25922 strain (Escherichia coli); assay: as above; design: key: FIC≤0.5 synergy; 0.5–1 additive; 1–2 indifferent; ≥2 antagonism; conditions: combined with polymyxin E
Procedure: as §2, §3, §4, §5

[7] = tested on: ATCC13883 strain (Klebsiella pneumoniae); assay: as above; design: key: FIC≤0.5 synergy; 0.5–1 additive; 1–2 indifferent; ≥2 antagonism; conditions: combined with polymyxin E
Procedure: as §2, §3, §4, §5

[8] = tested on: ATCC9027 strain (Pseudomonas aeruginosa); assay: as above; design: key: FIC≤0.5 synergy; 0.5–1 additive; 1–2 indifferent; ≥2 antagonism; conditions: combined with polymyxin E
Procedure: as §2, §3, §4, §5

Row | SMILES | Antibacterial activity of the compound of Formula I, ATCC19606 [1] | Antibacterial activity of the compound of Formula I, ATCC25922 [2] | Antibacterial activity of the compound of Formula I, ATCC13883 [3] | Antibacterial activity of the compound of Formula I, ATCC9027 [4] | Synergistic activity (FIC value) ATCC19606 [5] | Synergistic activity (FIC value) ATCC25922 [6] | Synergistic activity (FIC value) ATCC13883 [7] | Synergistic activity (FIC value) ATCC9027 [8] | MIC ([1]; read-out: Antibacterial activity of the compound of Formula I, ATCC19606) | MIC ([2]; read-out: Antibacterial activity of the compound of Formula I, ATCC25922) | MIC ([3]; read-out: Antibacterial activity of the compound of Formula I, ATCC13883) | MIC ([4]; read-out: Antibacterial activity of the compound of Formula I, ATCC9027)
1 | NC(N)=Nc1nc(-c2cccc(NC(=O)NC3CC3)c2)cs1 [Compound I-31] | 256 µg/mL | 256 µg/mL | 256 µg/mL | 256 µg/mL | 0.25 | 0.56 | 0.31 | 0.5 | – | – | – | –
2 | CS(=O)(=O)Nc1cccc(-c2csc(N=C(N)N)n2)c1 [Compound I-32] | 256 µg/mL | 256 µg/mL | 256 µg/mL | 256 µg/mL | 0.25 | 1.25 | 1.25 | 0.52 | – | – | – | –
3 | NC(N)=Nc1nc(-c2ccc(I)cc2)cs1 [Compound I-33] | 256 µg/mL | 256 µg/mL | 256 µg/mL | 256 µg/mL | 0.28 | 0.5 | 0.25 | 0.63 | – | – | – | –
4 | NC(N)=Nc1nc(-c2cc(I)cc(I)c2)c[se]1 [Compound I-34] | 256 µg/mL | 256 µg/mL | 256 µg/mL | 256 µg/mL | 0.75 | 1.25 | 1.25 | 1.25 | – | – | – | –
5 | NC(N)=Nc1nc(-c2cc(I)c(O)c(I)c2)co1 [Compound I-35] | 256 µg/mL | 256 µg/mL | 256 µg/mL | 256 µg/mL | 0.13 | 0.52 | 0.19 | 1.25 | – | – | – | –
6 | NC(N)=Nc1nc(-c2ccccc2Cl)c[nH]1 [Compound I-36] | 256 µg/mL | 128 µg/mL | 128 µg/mL | 64 µg/mL | 0.25 | 0.56 | 0.31 | 0.5 | – | – | – | –
7 | NC(N)=Nc1nc(-c2cccc(Cl)c2)cs1 [Compound I-37] | 256 µg/mL | 256 µg/mL | 256 µg/mL | 256 µg/mL | 0.25 | 1.25 | 1.25 | 0.52 | – | – | – | –
8 | NC(N)=Nc1nc(-c2ccc(Cl)cc2)cs1 [Compound I-38] | 256 µg/mL | 256 µg/mL | 256 µg/mL | 256 µg/mL | 0.28 | 0.5 | 0.25 | 0.63 | – | – | – | –
9 | NC(N)=Nc1nc(-c2cc(Cl)cc(Cl)c2)cs1 [Compound I-39] | 256 µg/mL | 128 µg/mL | 128 µg/mL | 64 µg/mL | 0.75 | 1.25 | 1.25 | 1.25 | – | – | – | –
10 | NC(N)=Nc1nc(-c2cc(Cl)c(O)c(Cl)c2)co1 [Compound I-40] | 256 µg/mL | 256 µg/mL | 256 µg/mL | 256 µg/mL | 0.13 | 0.52 | 0.19 | 0.51 | – | – | – | –
11 | NC(N)=Nc1nc(-c2ccccc2C(F)(F)F)c[se]1 [Compound I-41] | 256 µg/mL | 256 µg/mL | 256 µg/mL | 256 µg/mL | 0.5 | 0.38 | 0.38 | 0.63 | – | – | – | –
12 | NC(N)=Nc1nc(-c2cccc(C(F)(F)F)c2)c[nH]1 [Compound I-42] | 256 µg/mL | 256 µg/mL | 256 µg/mL | 256 µg/mL | 1.25 | 0.53 | 1.25 | 1.25 | – | – | – | –
13 | NC(N)=Nc1nc(-c2ccc(C(F)(F)F)cc2)cs1 [Compound I-43] | 256 µg/mL | 256 µg/mL | 256 µg/mL | 256 µg/mL | 1.25 | 0.5 | 1.25 | 0.63 | – | – | – | –
14 | NC(N)=Nc1nc(-c2cc(C(F)(F)F)cc(C(F)(F)F)c2)cs1 [Compound I-44] | – | – | – | – | 0.14 | 0.31 | 0.25 | 0.52 | 256 µg/mL (≈ 723 µM) | 256 µg/mL (≈ 723 µM) | 256 µg/mL (≈ 723 µM) | 256 µg/mL (≈ 723 µM)

From patent publication US20260250257A1, “ANTIBACTERIAL AND SYNERGISTIC ACTIVE COMPOUND AND USE THEREOF” (EAST CHINA UNIVERSITY OF SCIENCE AND TECHNOLOGY, priority 2023, published 2026)
